This note sets out measurements from ChEMBL document CHEMBL1201862, “PubChem BioAssay data set” (2004).

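All cell lines were grown in 96-well plates and treated with compound for 48 hours. GI50 is the concentration that inhibits growth by half.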 Active and inactive are the calls of the source. No stated cut-off is given here; in the data, active = GI50 up to about 1.1 µM and inactive = higher. Where a SMILES comes first, the peptide text is derived from it. The star is where a group is joined. ONb = O=[N+]([O-])c1ccc(CO*)cc1; Boc = CC(C)(C)OC(=O)*

Test in all cases: NCI anticancer screen, dose series, 48 h
Experiment [1] concerns ACHN.
The subject of experiment [2] is EKVX.
Experiment [3] deals with HCT-116.
Experiment [4] relates to HCT-15.
Experiment [5] has as its system HL-60.
The subject of experiment [6] is HOP-92.
The subject of experiment [7] is MDA-N.
The subject of experiment [8] is MOLT-4.
Experiment [9] deals with NCI-H23.
Experiment [10] deals with NCI/ADR-RES.
The test system of experiment [11] is OVCAR-4.
Experiment [12] relates to OVCAR-8.
In experiment [13] the test system is PC-3.
Experiment [14] deals with RPMI-8226.
The test system of experiment [15] is SK-MEL-2.
Experiment [16] concerns SN12C.
Experiment [17] deals with TK-10.
In experiment [18] the test system is UO-31.
Experiment [19] deals with SK-MEL-5.

On to `O=C1CSC(c2c(O)ccc3ccccc23)N1n1c(S)nnc(/C=C/c2c(O)ccc3ccccc23)c1=O` (stereo unspecified), for which the GI50 is 0.466 µM (active) in experiment [1]; 6.15 µM (inactive) in experiment [2]; 0.359 µM (active) in experiment [3]; 0.327 µM in experiment [4]; 0.232 µM (active) in [5]; 16.3 µM (inactive) in experiment [6]. Also, the GI50 is 4.05 µM (inactive) in experiment [7]; 17.9 µM (inactive) in [8]; 1.98 µM (inactive) in experiment [9]; 0.851 µM (active) in [10]; 0.583 µM (active) in experiment [11]; 0.467 µM (active) in experiment [12]. Further, the GI50 in experiment [13] is 3.18 µM (inactive); in experiment [14] it was 1.26 µM (inactive); in [15], 1.17 µM (inactive); in experiment [16], 0.752 µM (active); in [17] it was 1.18 µM (inactive); in experiment [18], 0.92 µM (active).
As for `CN(Nc1cc(=O)[nH]c(=O)[nH]1)c1ccccc1`, the GI50 in experiment [1], in experiment [2], in [3], in [5], in experiment [6] and in [7] was > 100 µM (inactive) each time. Besides, the GI50 in [8], in experiment [9], in experiment [10], in experiment [11], in experiment [12] and in [13] was > 100 µM (inactive) each time. Moreover, the GI50 in [14], in experiment [15], in experiment [19], in experiment [16], in experiment [17] and in experiment [18] was > 100 µM (inactive) each time.
Consider `CC(=N/N=C/c1ccccn1)/C(C)=N/N=C(C)/C(C)=N/N=C(C)/C(C)=N/N=C(C)/C(C)=N\N=C\c1ccccn1`, for which the GI50 is > 100 µM (inactive) in [1]; > 100 µM (inactive) in experiment [2]; > 100 µM (inactive) in experiment [3]; over 100 µM in [4]; 49.1 µM (inactive) in experiment [5]; > 100 µM (inactive) in experiment [6]. In addition, the GI50 in experiment [7], in experiment [9], in [10], in experiment [11], in [12] and in [13] was > 100 µM (inactive) throughout. Further, the GI50 in experiment [14], in experiment [15], in [19], in experiment [16], in experiment [17] and in [18] was > 100 µM (inactive) in each case.
Turning to `C=CCn1c(N)c(C#N)c(C#N)c1-c1ccccc1`, the GI50 in experiment [1] was > 100 µM (inactive); in [2], 57.7 µM (inactive); in [4] it was over 100 µM; in experiment [5] it was > 100 µM (inactive); in experiment [6], > 100 µM (inactive); in experiment [7] it was > 100 µM (inactive). Also, the GI50 in experiment [8], in [9], in experiment [10], in experiment [11], in [12] and in experiment [13] was > 100 µM (inactive) each time. The GI50 in experiment [14] is > 100 µM (inactive); in [15] it was 26.8 µM (inactive); in experiment [19] it was > 100 µM (inactive); in experiment [16] it was > 100 µM (inactive); in experiment [17], > 100 µM (inactive); in experiment [18] it was > 100 µM (inactive).
`c1ccc(-c2cc(-c3cccs3)c(-c3cccs3)o2)cc1`: the GI50 was > 100 µM (inactive) in experiment [1]; > 100 µM (inactive) in experiment [2]; 50.7 µM (inactive) in experiment [3]; over 100 µM in experiment [4]; > 100 µM (inactive) in experiment [5]; > 100 µM (inactive) in experiment [6]. The GI50 in experiment [7], in [8], in [9], in experiment [10], in experiment [11] and in experiment [12] was > 100 µM (inactive) throughout. In addition, the GI50 in [13] was > 100 µM (inactive); in experiment [14], > 100 µM (inactive); in experiment [15], 34.7 µM (inactive); in experiment [19], > 100 µM (inactive); in [16] it was > 100 µM (inactive); in experiment [17], > 100 µM (inactive). In addition, the GI50 in [18] was > 100 µM (inactive).
Turning to `CSCCCS/C1=C/CCCCCCCCCC1`, the GI50 in [1] is > 100 µM (inactive); in experiment [2], > 100 µM (inactive); in experiment [3], > 100 µM (inactive); in [4] it was over 100 µM; in [5] it was > 100 µM (inactive); in [6], > 100 µM (inactive). In addition, the GI50 in experiment [7], in [8], in experiment [9], in experiment [10], in [11] and in [13] was > 100 µM (inactive) in each case. Besides, the GI50 in experiment [14], in [15], in experiment [19], in experiment [16], in experiment [17] and in [18] was > 100 µM (inactive) throughout.
Regarding `Cc1ccc(NC(=O)CC(=O)N2N=C(c3ccccc3)C(/N=N/c3ccc(S(=O)(=O)CCOS(=O)(=O)O)cc3)C2=O)cc1` (stereo unspecified), the GI50 in [1] is > 100 µM (inactive); in experiment [2] it was > 100 µM (inactive); in [3], 57.9 µM (inactive); in experiment [4], over 100 µM; in experiment [5] it was > 100 µM (inactive); in experiment [6] it was > 100 µM (inactive). The GI50 is > 100 µM (inactive) in experiment [7]; > 100 µM (inactive) in experiment [8]; 23.6 µM (inactive) in [9]; > 100 µM (inactive) in experiment [10]; 64.3 µM (inactive) in [12]; > 100 µM (inactive) in [13]. Moreover, the GI50 in [14] was > 100 µM (inactive); in experiment [15] it was 57.1 µM (inactive); in [19], > 100 µM (inactive); in [16] it was > 100 µM (inactive); in experiment [17], > 100 µM (inactive); in experiment [18], > 100 µM (inactive).
`COc1ccc(NC(=O)/C(=N\NC(=O)C[n+]2ccccc2)c2c(O)c3ccc(O)cc3oc2=O)c([N+](=O)[O-])c1`: the GI50 in experiment [1] is > 100 µM (inactive); in [2], > 100 µM (inactive); in [3] it was > 100 µM (inactive); in experiment [4], over 100 µM; in experiment [5] it was > 100 µM (inactive); in [6], 32.3 µM (inactive). Besides, the GI50 in [7] was > 100 µM (inactive); in experiment [8], 85.5 µM (inactive); in [9], > 100 µM (inactive); in [10], > 100 µM (inactive); in experiment [11], > 100 µM (inactive); in experiment [12], > 100 µM (inactive). The GI50 in [13], in experiment [14], in experiment [15], in [19], in [16] and in experiment [17] was > 100 µM (inactive) in each case. Moreover, the GI50 in experiment [18] is > 100 µM (inactive).
Turning to `COC(=O)[C@@H]1O[C@]12C(CO[Si](C)(C)C(C)(C)C)OC(n1ccc(=O)[nH]c1=O)C2O[Si](C)(C)C(C)(C)C` (stereo partly specified), the GI50 is 22 µM (inactive) in experiment [1]; 25.9 µM (inactive) in [2]; 23.3 µM (inactive) in [3]; 28.3 µM in [4]; 10.1 µM (inactive) in experiment [5]; 27.4 µM (inactive) in [6]. The GI50 was 33.1 µM (inactive) in experiment [7]; 8.36 µM (inactive) in experiment [8]; 19.8 µM (inactive) in experiment [9]; 30.8 µM (inactive) in [10]; 45.7 µM (inactive) in [11]; 30.9 µM (inactive) in experiment [12]. Further, the GI50 is 20.9 µM (inactive) in experiment [13]; 8.85 µM (inactive) in [14]; 17.4 µM (inactive) in [15]; 19.6 µM (inactive) in experiment [19]; 30.6 µM (inactive) in [16]; 27.1 µM (inactive) in [17]. In experiment [18], the GI50 is 18.9 µM (inactive).
On to `CC(C)CC(NC(=O)OC(C)(C)C)C(=O)NC(CCC(=O)OCc1ccc([N+](=O)[O-])cc1)C(=O)OCc1ccc([N+](=O)[O-])cc1` (stereo not drawn) (Boc-Leu-Glu(ONb)-ONb; configuration not given here), for which the GI50 in [1] is 46.6 µM (inactive); in experiment [2], 49.2 µM (inactive); in experiment [3], 37.5 µM (inactive); in experiment [4] it was over 100 µM; in experiment [5], 4.05 µM (inactive); in experiment [6] it was 56.4 µM (inactive). The GI50 in [7] was 44.8 µM (inactive); in [8], 13 µM (inactive); in experiment [9] it was 20 µM (inactive); in [10] it was > 100 µM (inactive); in experiment [11], > 100 µM (inactive); in [12] it was 37.1 µM (inactive). The GI50 was 27.9 µM (inactive) in experiment [13]; 22.4 µM (inactive) in [14]; 22.1 µM (inactive) in experiment [15]; > 100 µM (inactive) in experiment [16]; 28.6 µM (inactive) in experiment [17]; 82.6 µM (inactive) in [18].
In the case of `NCCS(=O)(=O)O` [TAURINE], the GI50 in experiment [1] was > 100 µM (inactive); in experiment [2], > 100 µM (inactive); in [3], > 100 µM (inactive); in experiment [4], over 100 µM; in [5] it was > 100 µM (inactive); in experiment [6] it was > 100 µM (inactive). Moreover, the GI50 in [7], in [8], in [9], in experiment [10], in experiment [12] and in experiment [13] was > 100 µM (inactive) throughout. Also, the GI50 in experiment [14], in experiment [15], in [19], in experiment [16], in [17] and in experiment [18] was > 100 µM (inactive) throughout.
